# Measurements: PubChem BioAssay AID2060887 (Molecular Pharmacology Branch, DTP, NCI, 2025)
# System: 782815-120-R-J1-PDC complex spheroid viability
# Experiment: Anticancer human tumor 782815-120-R-J1-PDC patient-derived colon adenocarcinoma cell line growth inhibition [RAS]
# Details: for IC50: curve of first compound; for viability, T/C: stronger effect = lower value
# How it was run: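 Agents were tested in combination matrices in half-log decrements from a top concentration at or near clinical Cmax (10 microM if undetermined). Targets were multi-cell spheroids of tumour lines plus HUVEC and MSC stromal cells.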
# 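Also: spheroids exposed to compounds for 7 days before reading.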
# 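For viability, T/C in this document: 100% = DMSO vehicle control viability.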
compound,measurement,setting,value
CC1(C)CCC(Nc2ncc(C(F)(F)F)c(-c3c[nH]c4c(P(C)(C)=O)c(C#N)ccc34)n2)CN1 (configuration not stated) + C#Cc1c(F)ccc2cc(O)cc(-c3ncc4c(N5CC6CCC(C5)N6)nc(OCC56CCCN5CC(F)C6)nc4c3F)c12,IC50,second compound 0.0316 µM,> 300 nM
same,IC50,second compound 0.1 µM,> 300 nM
same,IC50,second compound 0.316 µM,> 300 nM
same,IC50,second compound 1 µM,> 300 nM
same,IC50,second compound 3.16 µM,> 300 nM
same,IC50,second compound 10 µM,> 300 nM
same,"viability, T/C","second compound 0.0316 µM, first compound 0.000949 µM",98.2%
same,"viability, T/C","second compound 0.0316 µM, first compound 0.003 µM",101%
same,"viability, T/C","second compound 0.0316 µM, first compound 0.00949 µM",90.6%
same,"viability, T/C","second compound 0.0316 µM, first compound 0.03 µM",65.4%
same,"viability, T/C","second compound 0.0316 µM, first compound 0.0949 µM",58.1%
same,"viability, T/C","second compound 0.0316 µM, first compound 0.3 µM",60.2%
same,"viability, T/C","second compound 0.1 µM, first compound 0.000949 µM",93.2%
same,"viability, T/C","second compound 0.1 µM, first compound 0.003 µM",98.4%
same,"viability, T/C","second compound 0.1 µM, first compound 0.00949 µM",84.4%
same,"viability, T/C","second compound 0.1 µM, first compound 0.03 µM",70.2%
same,"viability, T/C","second compound 0.1 µM, first compound 0.0949 µM",61.2%
same,"viability, T/C","second compound 0.1 µM, first compound 0.3 µM",56.9%
same,"viability, T/C","second compound 0.316 µM, first compound 0.000949 µM",96.5%
same,"viability, T/C","second compound 0.316 µM, first compound 0.003 µM",92.9%
same,"viability, T/C","second compound 0.316 µM, first compound 0.00949 µM",90.4%
same,"viability, T/C","second compound 0.316 µM, first compound 0.03 µM",64.8%
same,"viability, T/C","second compound 0.316 µM, first compound 0.0949 µM",61.8%
same,"viability, T/C","second compound 0.316 µM, first compound 0.3 µM",57.9%
same,"viability, T/C","second compound 1 µM, first compound 0.000949 µM",95%
same,"viability, T/C","second compound 1 µM, first compound 0.003 µM",99.6%
same,"viability, T/C","second compound 1 µM, first compound 0.00949 µM",74.7%
same,"viability, T/C","second compound 1 µM, first compound 0.03 µM",65.2%
same,"viability, T/C","second compound 1 µM, first compound 0.0949 µM",64.3%
same,"viability, T/C","second compound 1 µM, first compound 0.3 µM",58.5%
same,"viability, T/C","second compound 3.16 µM, first compound 0.000949 µM",90.8%
same,"viability, T/C","second compound 3.16 µM, first compound 0.003 µM",94.1%
same,"viability, T/C","second compound 3.16 µM, first compound 0.00949 µM",80%
same,"viability, T/C","second compound 3.16 µM, first compound 0.03 µM",65.2%
same,"viability, T/C","second compound 3.16 µM, first compound 0.0949 µM",57.6%
same,"viability, T/C","second compound 3.16 µM, first compound 0.3 µM",63.5%
same,"viability, T/C","second compound 10 µM, first compound 0.000949 µM",93.9%
same,"viability, T/C","second compound 10 µM, first compound 0.003 µM",98.8%
same,"viability, T/C","second compound 10 µM, first compound 0.00949 µM",75.4%
same,"viability, T/C","second compound 10 µM, first compound 0.03 µM",69.6%
same,"viability, T/C","second compound 10 µM, first compound 0.0949 µM",65%
same,"viability, T/C","second compound 10 µM, first compound 0.3 µM",60.4%
